Test results as given in patent US20240382497A1, “PROPHYLACTIC OR THERAPEUTIC AGENT FOR HYPOXIC INJURY, ISCHAEMIA-REPERFUSION INJURY AND INFLAMMATION, CELL PROTECTION AGENT FOR TRANSPLANTATION, AND BIO-PRESERVATION AGENT” (priority 2018, published 2024).

Columns and labels:
C57/BL6N male mice [1] = test: Survival time in 4% oxygen after intraperitoneal NaHS or 2-methylthiophene; type: in vivo, mouse; settings: 200 μl i.p. of 1% solution; all individuals; observation time of 30 min
Protocol: Thus, the survival time was measured at the remaining three concentrations. As a control, the survival time of the mice intraperitoneally injected with saline or 2-methylthiophene (1% solution) in 4% oxygen was measured.

TNF-α = test: Blood TNF-α after LPS and 4E2MT, Trpa1 knockout and control mice; type: in vivo, mouse; settings: 1 hr after simultaneous i.p. administration with LPS
Protocol: Lipopolysaccharide (LPS) (0.6 mg/kg) was intraperitoneally administered to male Balb/c mice (about 2-3 months old) to generate a sepsis model. Immediately after the LPS administration, 200 μl (about 80 mg/kg) of a solution prepared by diluting various heterocyclic compounds and isothiocyanate compounds 100 times with saline was intraperitoneally administered. Blood samples were collected 60 min after LPS and compound administration, EDTA plasma was prepared, and the blood level of inflammatory cytokine TNF-a was measured by the ELISA method.
Changes in the body surface temperature, survival time under a hypoxic environment, and TNF-α production in blood by LPS administration induced by intraperitoneally administration of thiazoline-related compound (4-ethyl-2-methyl-2-thiazoline; 4E2MT) measured by a method similar to those in Example 3, Example 10, or Example 18.

male C57/BL6N mouse = test: Survival time in 4% oxygen after Trpa1 agonist i.p.; type: in vivo; settings: wild-type mouse; i.p. Δ9-THC 10 mg/kg, AITC 40 mg/kg, APAP 300 mg/kg; 30 min before 4% oxygen; versus saline
Protocol: (§1) Saline or known Trpa1 agonists Δ9-tetrahydrocannabinol (Δ^9-THC; 10 mg/kg), allyl isothiocyanate (AITC; 40 mg/kg), or acetaminophen (APAP; 300 mg/kg) was intraperitoneally administered to male C57/BL6N mouse (about 3-month-old) and, 30 min later, the mouse was placed in a tight box with adjusted oxygen concentration of 4%, and the survival time of the mouse was measured for 30 min at maximum. As to APAP, the survival time in 4% oxygen environment was also measured using male Trpa1 knockout and littermate hetero mice (about 3-to 6-month-old).

[2] = tested on: Trpa1 knockout and littermate hetero mice; test: Survival time in 4% oxygen after APAP i.p., Trpa1 knockout and hetero mice; type: in vivo, mouse; settings: 300 mg/kg i.p., versus saline
Protocol: as §1

[3] = Yu et al., Cell Physiol Biochem 36: 1539-1551, 2015; cited from earlier work
C57/BL6N male mice [4] = test: Survival time in 4% oxygen after intraperitoneal administration; type: in vivo, mouse; settings: Example 12, about 80 mg/kg i.p., 30 min before 4% oxygen, Kaplan-Meier, versus saline
Protocol: Influence of intraperitoneal administration of various kinds of heterocyclic compounds on the survival time of mouse under hypoxic environment was analyzed. The odor molecule was administered by a method of intraperitoneally injecting 200 μl (about 80 mg/kg, i.p.) of a solution diluted 100 times with saline and, 30 min later, the mice were placed in a tight box with adjusted oxygen concentration of 4%, and the survival time of the mouse was measured for 30 min at maximum. As a control, the survival time of the mice intraperitoneally injected with saline (control) was measured.
By a method similar to that in Example 10, influence of intraperitoneal administration of various isothiocyanate compounds (about 80 mg/kg, i.p.) on the survival time of mouse under hypoxic environment was analyzed.
About 3-month-old C57/BL6N male mice were intraperitoneally injected with 200 μl (about 80 mg/kg, i.p.) of a thiomorpholine solution diluted 100 times with saline and, 30 min later, the mice were placed in a tight box with adjusted oxygen concentration of 4%, and the survival time of the mouse was measured. As a control, the survival time of the mice intraperitoneally injected with saline was measured.

mice = test: Oxygen consumption after intraperitoneal injection; type: in vivo, mouse; settings: versus saline
Protocol: An influence of a thiazoline-related compound on the oxygen consumption was analyzed. The oxygen consumption was analyzed using an energy metabolism measurement device for small animals (ARCO-2000; ARCO SYSTEM). About 3-month-old C57/BL6N male mice were each placed in a measuring chamber and, after acclimation for about 2 hr, a thiazoline-related compound (2MT) was presented. The odors were presented by placing filter papers scented with 100 μl (104 mmol) of odor molecules in the measuring chamber. As a control, an experiment in which a filter paper dropped with saline was presented to the mice was also performed. The oxygen consumption was measured every one min. Mean oxygen consumption was calculated as the mean of 10 min before presenting odor and 20 min after presenting odor.
Changes in the oxygen consumption induced by intraperitoneal injection of heterocyclic compounds (2MT and Thiomorpholine (TMO) were measured by a method similar to that in Example 8.

[5] = tested on: wild-type and Trpa1 knockout mice; test: Survival time in 4% oxygen, thiomorpholine i.p., wild-type and Trpa1 knockout mice; type: in vivo, mouse; settings: about 80 mg/kg i.p.
Protocol: A heterocyclic compound (thiomorpholine) (200 μl, about 80 mg/kg) diluted 100 times with saline was intraperitoneally injected to male wild-type and Trpa1 knockout mice (about 3 to 6-month-old) and, 30 min later, the mice were placed in a tight box in which the oxygen concentration was adjusted to 4%, and the survival time of the mice was measured.

With `Cc1cccs1` [2-methylthiophene] the “survival time in 4% oxygen” value (C57/BL6N male mice [1]) was at least 30 min.
In the case of `CCC1CSC(C)=N1` (stereo not drawn) [4E2MT, 4-ethyl-2-methyl-2-thiazoline], the “amount of TNF-α in blood (decreasing effect)” value (TNF-α) is reported as “this effect was suppressed”.
In the case of `CCCCCc1cc(O)c2c(c1)OC(C)(C)[C@@H]1CCC(C)=C[C@@H]21` [49-THC, Δ9-tetrahydrocannabinol], the “survival time in 4% oxygen” value (male C57/BL6N mouse) is reported as “extending the survival time”.
With `C=CCN=C=S` [AITC, allyl isothiocyanate] the “survival time in 4% oxygen” value (male C57/BL6N mouse) was “extending the survival time”.
For `CC(=O)Nc1ccc(O)cc1` [APAP, acetaminophen], the “survival time in 4% oxygen” value ([2]; Trpa1 knockout mice (Trpa1−/−)) was “such effect was not observed”, the “survival time in 4% oxygen” value ([2]; control mice (Trpa1+/−)) was “extending the survival time” and the “survival time in 4% oxygen” value (male C57/BL6N mouse) was “extending the survival time”.
In the case of `[Na+].[SH-]` [NaHS], the “protective effects in ischemia-reperfusion injury” value [3] is given as “protective effects in ischemia-reperfusion injury”.
In the case of `C1CSCCN1` [thiomorpholine], the “survival time in 4% oxygen (hypoxia resistance)” value (C57/BL6N male mice [4]) is reported as “produces hypoxia resistance”, the oxygen consumption (mice) is reported as “suppress the oxygen consumption” and the “survival time in 4% oxygen” value ([5]; Trpa1 knockout mice (Trpa1−/−), compared with wild-type mouse) is reported as “survival time significantly decreased”. For the same compound, the “survival time in 4% oxygen” value ([5]; wild-type mice (Trpa1+/+)) was “significantly prolonging the survival time”.
